From patent publication US9505779B2 (EWHA University—Industry Collaboration Foundation, priority 2010, dated 2016)
“Also recorded” adds a separate entry of the source.

Assays:
[1] = tested on: CD3/CD28-stimulated human T lymphocytes; experiment: In vitro T-cell activation assay (interleukin-2 secretion, ELISA); assay type: cell-based; conditions: human T-cells activated with CD3/CD28 antibodies, 0.1 and 1.0 nM compound, 16 to 20 hr; for in vitro immunosuppressive activity (interleukin-2 secreted from activated T-cells) as compared with the control group: control = activated cells without compound
Experimental: After removal of cell debris by routine centrifugation, the supernatant was subjected to ELISA (R&D Systems) to quantify the level of interleukin-2 secreted from activated T-cells. The level of interleukin-2 obtained from T cells activated with CD3/CD28 without further treatment with the above compounds was used as a control (FIG. 7).
(§1) For statistical comparisons of group differences, especially for both the T cell activation and neurite outgrowth assays, quantitative data were analyzed by one-way analysis of variance (ANOVA) followed by Fisher's t-test according to the statistical program SigmaStat® (Jandel Scientific; version 3.1).

[2] = tested on: human neuroblastoma SH-SY5Y cells; experiment: In vitro neurite outgrowth assay using human neuroblastoma cells; assay type: cell-based; conditions: for neurite processes compared with cells treated with NGF alone (micrographs, FIG. 8) / neurite outgrowth activity: SH-SY5Y; for neurite processes compared with cells treated with NGF alone (micrographs, FIG. 8): NGF plus 1 nM compound, after 96 h of cultivation; for neurite outgrowth activity: NGF
Experimental: The relative nerve regeneration activities of the mutasynthetic analogues, 36-methyl-FK506 and 36-fluoro-FK520, compared with authentic K506 and FK520, were determined using human neuroblastoma cells. […] The cells (n=90) were randomly photographed after 96 hr of cultivation, then the number of cells with outgrowth was counted. The neurite lengths were measured on photographic prints. Duplicate wells were run in all experiments, and the entire experiment was replicated three times. Neurite length estimated from samples treated with NGF alone was used as a control (FIGS. 7 and 8).
as §1

| Compound | in vitro immunosuppressive activity (interleukin-2 secreted from activated T-cells) as compared with the control group [1] | neurite processes compared with cells treated with NGF alone (micrographs, FIG. 8) [2] | neurite outgrowth activity ([2]; 1 nM compound) | in vitro immunosuppressive activity (interleukin-2 secretion) against FK506 and FK520 [1] | greater effect on neurite outgrowth compared with FK506 ([2]; SH-SY5Y treated with nerve growth factor (10 ng/ml), 1 nM compound, 96 hr) [%] |
| --- | --- | --- | --- | --- | --- |
| CO[C@H]1C[C@@H](C)C/C(C)=C/[C@@H](CCF)C(=O)C[C@H](O)[C@@H](C)[C@@H](/C(C)=C/[C@@H]2CC[C@@H](O)[C@H](OC)C2)OC(=O)[C@@H]2CCCCN2C(=O)C(=O)[C@]2(O)O[C@H]1[C@@H](OC)C[C@H]2C [36-fluoro-FK520] | have the immunosuppressive activity | longer | strong neurite outgrowth activity | – | – |
| C=C(C)C[C@@H]1/C=C(\C)C[C@H](C)C[C@H](OC)[C@H]2O[C@@](O)(C(=O)C(=O)N3CCCC[C@H]3C(=O)O[C@H](/C(C)=C/[C@@H]3CC[C@@H](O)[C@H](OC)C3)[C@H](C)[C@@H](O)CC1=O)[C@H](C)C[C@@H]2OC [36-methyl-FK506] | significant immunosuppressive activity; also recorded: have the immunosuppressive activity | longer | strong neurite outgrowth activity | not improved | ~20 |
| C=CC[C@@H]1/C=C(\C)C[C@H](C)C[C@H](OC)[C@H]2O[C@@](O)(C(=O)C(=O)N3CCCC[C@H]3C(=O)O[C@H](/C(C)=C/[C@@H]3CC[C@@H](O)[C@H](OC)C3)[C@H](C)[C@@H](O)CC1=O)[C@H](C)C[C@@H]2OC [FK506, tacrolimus, reference compound] | – | longer | – | – | – |
| CC[C@@H]1/C=C(\C)C[C@H](C)C[C@H](OC)[C@H]2O[C@@](O)(C(=O)C(=O)N3CCCC[C@H]3C(=O)O[C@H](/C(C)=C/[C@@H]3CC[C@@H](O)[C@H](OC)C3)[C@H](C)[C@@H](O)CC1=O)[C@H](C)C[C@@H]2OC [FK520, ascomycin, reference compound] | – | exception | – | – | – |
